pIC50: −log10 of the molar value. Activity calls are given as the source filed them. The calls are words filed in the database; no cut-off is given here.
What was measured:
[1] = test system: Mycolicibacterium smegmatis; experiment: Inhibition of Mycobacterium smegmatis GMC_MDM2 NDH2 in inverted membrane vesicle assessed as inhibition of ATP-driven vesicle acidification by fluorescence based analysis; type: cell membranes
[2] = test system: Mycolicibacterium smegmatis; experiment: Inhibition of Mycobacterium smegmatis NDH2 in inverted membrane vesicle assessed as inhibition of […] vesicle acidification by fluorescence based analysis; type: cell membranes
[3] = test system: Mycolicibacterium smegmatis; experiment: Inhibition of Mycobacterium smegmatis NDH2 in inverted membrane vesicle assessed as inhibition of succinate-driven vesicle acidification by fluorescence based analysis; type: cell membranes
[4] = test system: Mycolicibacterium smegmatis; experiment: Inhibition of Mycobacterium smegmatis GMC_MDM2 NDH2 in inverted membrane vesicle assessed as inhibition of ATP-driven vesicle acidification at >10 uM by fluorescence based analysis; type: cell membranes
[5] = test system: Mycolicibacterium smegmatis; experiment: Inhibition of Mycobacterium smegmatis NDH2 in inverted membrane vesicle assessed as inhibition of succinate-driven vesicle acidification at >10 uM by fluorescence based analysis; type: cell membranes
[6] = Inhibition of recombinant Mycobacterium smegmatis NDH2 catalytic activity in presence of NADH incubated for 1 min by UV-spectrometric analysis; design: species or system Mycolicibacterium smegmatis
[7] = test system: Mycolicibacterium smegmatis; experiment: Inhibition of Mycobacterium smegmatis NDH2 in inverted membrane vesicle assessed as inhibition of […] vesicle acidification at up to 120 uM by fluorescence based analysis; type: cell membranes

Structure (SMILES)	inhibition [1]	inhibition [2]	inhibition [3]	inhibition [4]	inhibition [5]	pIC50 [6]	inhibition [7]
Nc1nc(Nc2ccc3nc(-c4ccc(F)cc4)cc(N)c3c2)cc(-c2ccc(C(F)(F)F)cc2)n1	Active	Active	Active				
Nc1nc(Nc2ccc3nc(-c4ccc(F)cc4)cc(N)c3c2)cc(-c2ccc(Cl)cc2)n1	Active	Active	Active				
O=C(CSc1nc2ccccc2c(=O)[nH]1)NC1CCCCC1	Active			Active; Compound Showed Partial Inhibition Of Atp Driven Acidification	Active; Compound Showed Partial Inhibition Of Succinate Driven Acidification	7.64	
C=C(C)[C@H]1Cc2c(ccc3c2O[C@@H]2COc4cc(OC)c(OC)cc4[C@@H]2C3=O)O1							inactive

Source: ChEMBL document CHEMBL6109123, “Structure of Mycobacterial NDH-2 Bound to a 2-Mercapto-Quinazolinone Inhibitor” (J Med Chem, 2025)
